According to patent US20190375778A1, “ADENOSINE DERIVATIVES FOR USE IN THE TREATMENT OF CANCER” (NuCana plc, priority 2016, published 2019):
Where two headings read alike, the source gives them in different places.

What was measured:
Assay type in all cases: cell-based
[1] = test system: Jurkat; experiment: CellTiterGlo viability assay, Jurkat; details: Homo sapiens, read-out: IC50 Jurkat
Protocol: (§1) In vitro viability assay were performed to assess the effects of compounds on cell viability in selected cell lines over ˜72 hrs using the CellTiterGlo (CTG, Promega-G7573) assay. The tests were performed in duplicates with treatment of compounds at 9 points, 3.16 folds titration in 96 well plates over ˜72 hrs. The compound starting concentrations were 198 μM. Cell viability assay using CellTiterGlo in 96-well plate were performed. Compound treatment 72 hrs, standard growth conditions, duplicates. Compounds were dissolved to 40 mM with thawed […]. Compounds were serially diluted at 3.16 fold in thawed DMSO, and warmed to 37° C. before being dissolved in media (2 μl+200 μl). After compounds were dissolved in media, media containing compounds were warmed to 37° C. in incubator and then compounds in media were added to cell plates (50 μl+50 μl) in duplicates. The compounds' final concentrations were from […] to 19.9 nM. All compound solubilities were checked and recorded again, then the plates were transferred to CO2 tissue culture incubator immediately and incubated for 3 days. DMSO final concentration is 0.5%.

[2] = test system: human T-lymphocyte CEM; experiment: Cell proliferation (Coulter count) assay, CEM; details: 72 h, read-out: absolute IC50, CEM
In short: (§2)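 Cells grown in DMEM with 10% FBS. HeLa seeded at 10 000 cells/well, compound added after 24 h, counted day 5; L1210 and CEM seeded at 60 000 cells/well with compound, counted after 48 h and 72 h respectively. IC50 is concentration halving proliferation by Coulter count.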

[3] = test system: HL-60; experiment: CellTiterGlo viability assay, HL-60; details: for IC50: read-out: IC50 HL-60
In short: (§3)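 Each cell line treated ~72 h under standard growth conditions, in duplicate, with 9-point 3.16-fold titrations; final concentrations from 198 μM down to 19.9 nM, 0.5% DMSO. Viability read by CellTiterGlo luminescence.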

[4] = test system: SW620; experiment: CellTiterGlo viability assay, SW620; details: Homo sapiens, read-out: IC50 SW620
Protocol: as §1

[5] = test system: BxPC-3; experiment: CellTiterGlo viability assay, BxPC-3; details: Homo sapiens, read-out: IC50 BxPC-3
Protocol: as §1

[6] = test system: MOLT-4; experiment: CellTiterGlo viability assay, MOLT-4; details: for IC50: read-out: IC50 MOLT-4
Protocol: as §1

[7] = test system: K562; experiment: CellTiterGlo viability assay, K562; details: for IC50: read-out: IC50 K562
In short: as §3

[8] = test system: RL; experiment: CellTiterGlo viability assay, RL; details: for IC50: read-out: IC50 RL
In short: as §3

[9] = test system: CCRFCEM; experiment: CellTiterGlo viability assay, CCRFCEM; details: for IC50: read-out: IC50 CCRFCEM
In short: as §3

[10] = test system: NCI-H929; experiment: CellTiterGlo viability assay, NCI-H929; details: Homo sapiens, read-out: IC50 NCI-H929
In short: as §3

[11] = test system: KG-1; experiment: CellTiterGlo viability assay, KG-1; details: Homo sapiens, read-out: IC50 KG-1
In short: as §3

[12] = test system: THP-1; experiment: CellTiterGlo viability assay, THP-1; details: Homo sapiens, read-out: IC50 THP-1
Protocol: as §1

[13] = test system: MV4-11; experiment: CellTiterGlo viability assay, MV4-11; details: Homo sapiens, read-out: IC50 MV4-11
In short: as §3

[14] = test system: MiaPaCa-2; experiment: CellTiterGlo viability assay, MiaPaCa-2; details: for IC50: read-out: IC50 MiaPaCa-2
Protocol: as §1

[15] = test system: Z138; experiment: CellTiterGlo viability assay, Z138; details: for IC50: read-out: IC50 Z138
Protocol: as §1

[16] = test system: human cervix carcinoma HeLa cells; experiment: Cell proliferation (Coulter count) assay, HeLa; details: 120 h, cell count on day 5, read-out: absolute IC50, HeLa
In short: as §2

[17] = test system: HT29; experiment: CellTiterGlo viability assay, HT29; details: for IC50: read-out: IC50 HT29
Protocol: as §1

[18] = Homo sapiens, HL-60, CellTiterGlo, 72 hrs
[19] = Homo sapiens, MOLT-4, CellTiterGlo, 72 hrs
[20] = Homo sapiens, K562, CellTiterGlo, 72 hrs
[21] = Homo sapiens, RL, CellTiterGlo, 72 hrs
[22] = Homo sapiens, CCRF-CEM, CellTiterGlo, 72 hrs
[23] = Homo sapiens, MIA PaCa-2, CellTiterGlo, 72 hrs
[24] = Homo sapiens, Z-138, CellTiterGlo, 72 hrs
[25] = Homo sapiens, HT-29, CellTiterGlo, 72 hrs

With `Nc1ncnc2c1nc(Cl)n2[C@@H]1O[C@H](CO)[C@@H](O)[C@H]1O` [8-chloroadenosine, 8-Chloroadenosine, reference compound] the IC50 ([1]; CellTiterGlo, 72 hrs) was 0.1 to 5 µM, the IC50 [2] was 0.1 to 5 µM and the “Top in. % HL-60” value [3] was 97.1%. It also gave an IC50 [3, 18] of 0.1 to 5 µM, an EC50 ([3]; Homo sapiens, HL-60, read-out: Ab EC50 (μM) HL-60) of 10.2 µM and an IC50 ([4]; SW-620, CellTiterGlo, 72 hrs) of 0.1 to 5 µM. The IC50 ([5]; BXPC-3, CellTiterGlo, 72 hrs) was 5 to 15 µM, the “Top in. % MOLT-4” value [6] was 76.0% and the IC50 [6, 19] was 0.1 to 5 µM. For the same compound, the EC50 ([6]; Homo sapiens, MOLT-4, read-out: Ab EC50 (μM) MOLT-4) was 3.27 µM, the “Top in. % K562” value [7] was 82.0% and the IC50 [7, 20] was 0.1 to 5 µM. For the same compound, the EC50 ([7]; Homo sapiens, K562, read-out: Ab EC50 (μM) K562) was 11.8 µM, the “Top in. % RL” value [8] was 87.3% and the IC50 [8, 21] was 5 to 15 µM. The EC50 ([8]; Homo sapiens, RL, read-out: Ab EC50 (μM) RL) was 4.39 µM, the “Top in. % CCRF-CEM” value [9] was 82.3% and the IC50 [9, 22] was 0.1 to 5 µM. It also gave an EC50 ([9]; Homo sapiens, CCRF-CEM, read-out: Ab EC50 (μM) CCRF-CEM) of 2.27 µM, an IC50 ([10]; NCI-H929, CellTiterGlo, 72 hrs) of 0.1 to 5 µM and an IC50 ([11]; KG-1, CellTiterGlo, 72 hrs) of 0.1 to 5 µM. The IC50 ([12]; THP-1, CellTiterGlo, 72 hrs) was 0.1 to 5 µM, the IC50 ([13]; MV4-11, CellTiterGlo, 72 hrs) was 0.1 to 5 µM and the “Top in. % MiaPa-Ca-2” value [14] was 86.2%. The IC50 [14, 23] was 0.1 to 5 µM, the EC50 ([14]; Homo sapiens, MIA PaCa-2, read-out: Ab EC50 (μM) MiaPa-Ca-2) was 0.44 µM and the “Top in. % Z-138” value [15] was 88.7%. For the same compound, the IC50 [15, 24] was 0.1 to 5 µM, the EC50 ([15]; Homo sapiens, Z-138, read-out: Ab EC50 (μM) Z-138) was 1.44 µM and the IC50 [16] was 0.1 to 5 µM. The “Top in. % HT29” value [17] was 80.2%, the IC50 [17, 25] was 0.1 to 5 µM and the EC50 ([17]; Homo sapiens, HT-29, read-out: Ab EC50 (μM) HT29) was 1.35 µM.
Compound `Nc1ncnc2c1nc(Cl)n2[C@@H]1O[C@H](COP(=O)(NCC(=O)OCc2ccccc2)NCC(=O)OCc2ccccc2)C(O)C1O` (stereo partly drawn) [Compound AC, 8-Chloroadenosine 5′-O-bis(benzyloxy-glycin-N-yl) phosphate] has an IC50 ([1]; CellTiterGlo, 72 hrs) of 0.1 to 5 µM, an IC50 [2] of 0.1 to 5 µM and an IC50 [3, 18] of 0.1 to 5 µM. It also gave an IC50 ([4]; SW-620, CellTiterGlo, 72 hrs) of 0.1 to 5 µM, an IC50 ([5]; BXPC-3, CellTiterGlo, 72 hrs) of 5 to 15 µM and an IC50 [6, 19] of 0.1 to 5 µM. The IC50 [7, 20] was 0.1 to 5 µM, the IC50 [8, 21] was 0.1 to 5 µM and the IC50 [9, 22] was 0.1 to 5 µM. It also gave an IC50 ([10]; NCI-H929, CellTiterGlo, 72 hrs) of 0.1 to 5 µM, an IC50 ([11]; KG-1, CellTiterGlo, 72 hrs) of 0.1 to 5 µM and an IC50 ([12]; THP-1, CellTiterGlo, 72 hrs) of 0.1 to 5 µM. The IC50 ([13]; MV4-11, CellTiterGlo, 72 hrs) was 0.1 to 5 µM, the IC50 [14, 23] was 0.1 to 5 µM and the IC50 [15, 24] was 0.1 to 5 µM. The IC50 [16] was 0.1 to 5 µM and the IC50 [17, 25] was 0.1 to 5 µM.
`C[C@H](NP(=O)(OC[C@H]1O[C@@H](n2c(Cl)nc3c(N)ncnc32)C(O)C1O)Oc1cccc2ccccc12)C(=O)OCc1ccccc1` (stereo partly drawn) [Compound D, (2S)-Benzyl 2-(((((2R,3S,4R,5R)-5-(6-amino-8-chloro-9H-purin-9-yl)-3,4-dihydroxy-tetrahydrofuran-2-yl)methoxynaphthalene-1-yloxy)phosphoryl)amino)propanoate] was tested, and the IC50 ([1]; 72 h) was 0.1 to 5 µM, the IC50 [2] was 0.1 to 5 µM and the IC50 ([3]; Homo sapiens, HL-60, 72 h) was 5 to 15 µM. For the same compound, the IC50 ([4]; SW-620, 72 h) was 0.1 to 5 µM, the IC50 ([5]; BXPC-3, 72 h) was 5 to 15 µM and the IC50 ([6]; Homo sapiens, MOLT-4, 72 h) was 0.1 to 5 µM. The IC50 ([7]; Homo sapiens, K562, 72 h) was 0.1 to 5 µM, the IC50 ([8]; Homo sapiens, RL, 72 h) was 5 to 15 µM and the IC50 ([9]; Homo sapiens, CCRF-CEM, 72 h) was 0.1 to 5 µM. The IC50 ([10]; NCI-H929, 72 h) was 0.1 to 5 µM, the IC50 ([11]; KG-1, 72 h) was 5 to 15 µM and the IC50 ([12]; THP-1, 72 h) was 0.1 to 5 µM. The IC50 ([13]; MV4-11, 72 h) was 0.1 to 5 µM, the IC50 ([14]; Homo sapiens, MIA PaCa-2, 72 h) was 0.1 to 5 µM and the IC50 ([15]; Homo sapiens, Z-138, 72 h) was 0.1 to 5 µM. It also gave an IC50 [16] of 0.1 to 5 µM and an IC50 ([17]; Homo sapiens, HT-29, 72 h) of 0.1 to 5 µM.
For `CCCCCOC(=O)[C@H](C)NP(=O)(OC[C@H]1O[C@@H](n2c(Cl)nc3c(N)ncnc32)C(O)C1O)Oc1cccc2ccccc12` (stereo partly drawn) [Compound E, (2S)-Pentyl 2-(((((2R,3S,4R,5R)-5-(6-amino-8-chloro-9H-purin-9-yl)-3,4-dihydroxy-tetrahydrofuran-2-yl)methoxnaphthalene-1-yloxy)phosphoryl)amino)propanoate], the IC50 ([1]; 72 h) was 0.1 to 5 µM, the IC50 [2] was 0.1 to 5 µM and the IC50 ([3]; Homo sapiens, HL-60, 72 h) was 0.1 to 5 µM. For the same compound, the IC50 ([4]; SW-620, 72 h) was 0.1 to 5 µM, the IC50 ([5]; BXPC-3, 72 h) was 5 to 15 µM and the IC50 ([6]; Homo sapiens, MOLT-4, 72 h) was 0.1 to 5 µM. It also gave an IC50 ([7]; Homo sapiens, K562, 72 h) of 0.1 to 5 µM, an IC50 ([8]; Homo sapiens, RL, 72 h) of 5 to 15 µM and an IC50 ([9]; Homo sapiens, CCRF-CEM, 72 h) of 0.1 to 5 µM. For the same compound, the IC50 ([10]; NCI-H929, 72 h) was 0.1 to 5 µM, the IC50 ([11]; KG-1, 72 h) was 0.1 to 5 µM and the IC50 ([12]; THP-1, 72 h) was 0.1 to 5 µM. For the same compound, the IC50 ([13]; MV4-11, 72 h) was 0.1 to 5 µM, the IC50 ([14]; Homo sapiens, MIA PaCa-2, 72 h) was 0.1 to 5 µM and the IC50 ([15]; Homo sapiens, Z-138, 72 h) was 0.1 to 5 µM. For the same compound, the IC50 [16] was 0.1 to 5 µM and the IC50 ([17]; Homo sapiens, HT-29, 72 h) was 0.1 to 5 µM.
